Assay results published in patent US9840478B2 (MERCK SHARP & DOHME CORP., priority 2013, dated 2017).

The molecules below were run on HIV-1 (H9IIIB strain) (assay: Cell-based HIV infection assay using a reporter (Cell-Based), MT4-GFP cells). Settings: Human immunodeficiency virus 1, MT4-GFP cells infected with HIV-1 H9IIIB; 50% normal human serum; mean of at least two independent experiments; read-out: Cell-based IP.
Procedure, shortened: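 IC50 from 4-parameter dose-response of % viral growth inhibition, using the 48 h/24 h infected-cell ratio scaled between DMSO and a protease/integrase/NNRTI triple-drug control. Assay used MT4 cells with HIV-LTR-GFP reporter, pre-infected 24 h with HIV-1 H9IIIB, in 50% normal human serum.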
In the case of CS(=O)(=O)C1CCN(S(=O)(=O)N2CCNC[C@@H]2CCc2c(F)cncc2NC(=O)C[C@@H](c2ccc(F)cc2)c2cc(F)cc(F)c2)CC1 [Example 336, (3S)-3-(3,5-difluorophenyl)-N-(5-fluoro-4-{2-[(2S)-1-{[4-(methylsulfonyl)piperidin-1-yl]sulfonyl}piperazin-2-yl]ethyl}pyridin-3-yl)-3-(4-fluorophenyl)propanamide], the IC50 is reported as 240 nM.
Molecule CC(C)[C@H](c1ccc(F)cc1)[C@H](N)C(=O)Nc1cncc(F)c1CC[C@H]1CNCCN1S(=O)(=O)C1CC1 [Example 64, (βR)-N-(4-{2-[(2S)-1-(cyclopropylsulfonyl)piperazin-2-yl]ethyl}-5-fluoropyridin-3-yl)-4-fluoro-β-(1-methylethyl)-L-phenylalaninamide] has an IC50 of 95 nM.
N[C@H](C(=O)Nc1cccc(F)c1CC[C@H]1CNCCN1S(=O)(=O)c1ccccc1)C(c1cccc(F)c1)c1cccc(F)c1 [Example 40, 3-fluoro-β-(3-fluorophenyl)-N-(3-fluoro-2-{2-[(2S)-1-(phenylsulfonyl)piperazin-2-yl]ethyl}phenyl)-L-phenylalaninamide] was tested, and the IC50 was 4.8 nM.
Molecule COC(=O)N[C@H](C(=O)Nc1cccc(F)c1CC[C@H]1CNCC(COC(C)C)N1S(=O)(=O)C1CC1)[C@@H](c1ccc(F)cc1)c1cc(F)cc(F)c1 (stereo partly drawn) [Example 237, (βS)-N-[2-(2-{(2S)-1-(cyclopropylsulfonyl)-6-[(1-methylethoxy)methyl]piperazin-2-yl}ethyl)-3-fluorophenyl]-β-(3,5-difluorophenyl)-4-fluoro-Nα-(methoxycarbonyl)-L-phenylalaninamide] has an IC50 of 30 nM.
COCC1CNC[C@H](CCc2c(F)cccc2NC(=O)[C@@H](N)[C@@H](c2ccc(F)cc2)c2cc(F)cc(F)c2)N1S(=O)(=O)C1CC1 (stereo partly drawn) [Example 241, (βS)-N-(2-{2-[(2S)-1-(cyclopropylsulfonyl)-6-(methoxymethyl)piperazin-2-yl]ethyl}-3-fluorophenyl)-β-(3,5-difluorophenyl)-4-fluoro-L-phenylalaninamide] showed an IC50 of 39 nM.
CC(C)[C@H](c1ccc(Cl)cc1)[C@H](N)C(=O)Nc1cncc(F)c1CC[C@H]1CNC[C@@H](C)N1S(=O)(=O)C1CC1 [Example 178, (βR)-4-chloro-N-(4-{2-[(2S,6R)-1-(cyclopropylsulfonyl)-6-methylpiperazin-2-yl]ethyl}-5-fluoropyridin-3-yl)-β-(1-methylethyl)-L-phenylalaninamide] showed an IC50 of 340 nM.
Work on COC(=O)N[C@H](C(=O)Nc1cccc(F)c1CC[C@H]1CNC[C@H](C)N1S(=O)(=O)c1ccccc1)C(c1cccc(F)c1)c1cccc(F)c1 [Example 100, 3-fluoro-N-(3-fluoro-2-{2-[(2S,6S)-6-methyl-1-(phenylsulfonyl)piperazin-2-yl]ethyl}phenyl)-β-(3-fluorophenyl)-Nα-(methoxycarbonyl)-L-phenylalaninamide] yielded an IC50 of 30 nM.
For CS(=O)(=O)N1[C@@H](CCc2c(F)cccc2NC(=O)[C@@H](N)[C@@H](c2ccc(F)cc2)c2cc(F)cc(F)c2)CNC[C@@H]1C1CC1 [Example 205, (βS)-N-(2-{2-[(2S,6S)-6-cyclopropyl-1-(methylsulfonyl)piperazin-2-yl]ethyl}-3-fluorophenyl)-β-(3,5-difluorophenyl)-4-fluoro-L-phenylalaninamide], the IC50 was 22 nM.
Molecule COC(=O)N[C@H](C(=O)Nc1cccc(F)c1CC[C@H]1CNCCN1S(=O)(=O)c1ccccc1)[C@@H](c1ccc(Cl)cc1)c1cncc(F)c1 [Example 55, (βS)-4-chloro-N-(3-fluoro-2-{2-[(2S)-1-(phenylsulfonyl)piperazin-2-yl]ethyl}phenyl)-β-(5-fluoropyridin-3-yl)-Nα-(methoxycarbonyl)-L-phenylalaninamide] has an IC50 of 9 nM.
CC[C@H]1CNC[C@H](CCc2c(F)cccc2NC(=O)[C@@H](NC(=O)OC)[C@@H](c2ccc(F)cc2)c2cc(F)cc(F)c2)N1S(C)(=O)=O [Example 269, (βS)-β-(3,5-difluorophenyl)-N-(2-{2-[(2S,6S)-6-ethyl-1-(methylsulfonyl)piperazin-2-yl]ethyl}-3-fluorophenyl)-4-fluoro-Nα-(methoxycarbonyl)-L-phenylalaninamide] showed an IC50 of 9.9 nM.
COc1ccc(S(=O)(=O)N2[C@@H](CCc3c(F)cccc3NC(=O)[C@@H](N)[C@@H](Cc3ccc(F)cc3)c3ccc(Cl)cc3)CNC[C@@H]2C)cc1 [Example 186, (βS)-4-chloro-β-(4-fluorobenzyl)-N-[3-fluoro-2-(2-{(2S,6S)-1-[(4-methoxyphenyl)sulfonyl]-6-methylpiperazin-2-yl}ethyl)phenyl]-L-phenylalaninamide] was tested, and the IC50 was 86 nM.
With C[C@@H]1CNC[C@H](CCc2c(F)cncc2NC(=O)[C@@H](N)[C@@H](c2ccc(Cl)cc2)c2cccc(F)c2)N1S(=O)(=O)c1ccccc1 [Example 135, (βS)-4-chloro-N-(5-fluoro-4-{2-[(2S,6R)-6-methyl-1-(phenylsulfonyl)piperazin-2-yl]ethyl}pyridin-3-yl)-β-(3-fluorophenyl)-L-phenylalaninamide] the IC50 was 23 nM.
Molecule C[C@@H]1CNC[C@H](CCc2c(F)cccc2NC(=O)[C@@H](N)[C@@H](c2ccc(Cl)cc2)C2CCOCC2)N1S(=O)(=O)c1ccc(C(F)F)cc1 [Example 264, (βR)-4-chloro-N-(2-{2-[(2S,6R)-1-{[4-(difluoromethyl)phenyl]sulfonyl}-6-methylpiperazin-2-yl]ethyl}-3-fluorophenyl)-β-(tetrahydro-2H-pyran-4-yl)-L-phenylalaninamide] has an IC50 of 69 nM.
Molecule COc1ccc(S(=O)(=O)N2[C@@H](CCc3c(F)cccc3NC(=O)[C@@H](N)[C@@H](c3cccc(Cl)c3)C(C)C)CNC[C@@H]2C)cc1 [Example 249, (βR)-3-chloro-N-[3-fluoro-2-(2-{(2S,6S)-1-[(4-methoxyphenyl)sulfonyl]-6-methylpiperazin-2-yl}ethyl)phenyl]-β-(1-methylethyl)-L-phenylalaninamide] has an IC50 of 53 nM.

These molecules were tested against T1, wildtype HIV-1 protease (Human immunodeficiency virus type 1 group M subtype B, UniProt P04585) (assay: Assay for inhibition of microbial expressed HIV protease (Pepcleav)). Settings: wildtype HIV-1 protease expressed in E. coli; peptide substrate; mean of at least two independent experiments.
T1 construct: preincubated with the HIV-1 protease (wild type) enzyme in assay buffer; made in house; host or cells: Escherichia coli
Assay type: biochemical
Experimental: Assay for Inhibition of Microbial Expressed HIV Protease (“Pepcleav”)
Studies of the inhibition of the wildtype HIV-1 protease (which was expressed in Escherichia coli) were carried out with a peptide substrate [Val-Ser-Gln-Asn-(βnaphtyl)Ala-Pro-Ile-Val]. The inhibitor is first preincubated with the HIV-1 protease (wild type) enzyme in assay buffer (50 mM sodium acetate, pH 5.5, 100 mM NaCl, and 0.1% BSA) for 30 minutes at room temperature. Substrate is added to 400 micromolar in a total volume of 20 microliters containing 20 picomolar HIV-1 protease (final) and the reaction is incubated for 1 hour at 30° C. The reaction is quenched with the addition of formic acid and indinavir to 0.012% and 150 nM final concentrations, respectively. The product formation is determined after separation of product and substrate on a Zorbax Eclipse XDB-C18 column connected to an API 4000 mass spectrometer (Applied Biosystems) with multiple reaction monitoring (transitions were 644.5/428.9 and 615.4/422.2 (M1/M3) for product and indinavir respectively). The extent of inhibition of the reaction is determined from the peak area of the products. Analysis of the products, independently synthesized, provided quantitation standards and confirmation of the product composition.
With CS(=O)(=O)C1CCN(S(=O)(=O)N2CCNC[C@@H]2CCc2c(F)cncc2NC(=O)C[C@@H](c2ccc(F)cc2)c2cc(F)cc(F)c2)CC1 [Example 336, (3S)-3-(3,5-difluorophenyl)-N-(5-fluoro-4-{2-[(2S)-1-{[4-(methylsulfonyl)piperidin-1-yl]sulfonyl}piperazin-2-yl]ethyl}pyridin-3-yl)-3-(4-fluorophenyl)propanamide] the IC50 was 13 nM.
In the case of CC(C)[C@H](c1ccc(F)cc1)[C@H](N)C(=O)Nc1cncc(F)c1CC[C@H]1CNCCN1S(=O)(=O)C1CC1 [Example 64, (βR)-N-(4-{2-[(2S)-1-(cyclopropylsulfonyl)piperazin-2-yl]ethyl}-5-fluoropyridin-3-yl)-4-fluoro-β-(1-methylethyl)-L-phenylalaninamide], the IC50 is reported as 70 nM.
Work on N[C@H](C(=O)Nc1cncc(F)c1CC[C@@H]1CNCCN1S(=O)(=O)c1ccccc1)C(c1ccc(F)cc1)c1ccc(F)cc1 [Example 23, (S)-2-amino-N-(5-fluoro-4-(2-((R)-1-(phenylsulfonyl)piperazin-2-yl)ethyl)pyridin-3-yl)-3,3-bis(4-fluorophenyl) propanamide] yielded an IC50 of 10 nM.
In the case of O=C(CC1(c2ccccc2)CCCNC1)Nc1cncc(F)c1CC[C@H]1CNCCN1S(=O)(=O)C1CC1 (stereo partly drawn) [Example 63, N-(4-{2-[(2S)-1-(cyclopropylsulfonyl)piperazin-2-yl]ethyl}-5-fluoropyridin-3-yl)-2-(3-phenylpiperidin-3-yl)acetamide], the IC50 is reported as 1300 nM.
For N[C@H](C(=O)Nc1cccc(F)c1CC[C@H]1CNCCN1S(=O)(=O)c1ccccc1)C(c1cccc(F)c1)c1cccc(F)c1 [Example 40, 3-fluoro-β-(3-fluorophenyl)-N-(3-fluoro-2-{2-[(2S)-1-(phenylsulfonyl)piperazin-2-yl]ethyl}phenyl)-L-phenylalaninamide], the IC50 was 0.03 nM.
CS(=O)(=O)N1CCNC[C@@H]1CCc1c(F)cncc1NC(=O)[C@@H](N)[C@@H](c1ccc(F)cc1)c1cc(F)cc(F)c1 [Example 26, (2S,3S)-2-amino-3-(3,5-difluorophenyl)-N-(5-fluoro-4-(2-((S)-1-(methylsulfonyl)piperazin-2-yl)ethyl)pyridin-3-yl)-3-(4-fluorophenyl)propanamide] was tested, and the IC50 was 3.5 nM.
Molecule N[C@H](C(=O)Nc1cncc(F)c1CCC1CNCCN1S(=O)(=O)Cc1ccccc1)C(c1ccc(F)cc1)c1ccc(F)cc1 (stereo partly drawn) [Example 21, N-(4-{2-[1-(benzylsulfonyl)piperazin-2-yl]ethyl}-5-fluoropyridin-3-yl)-4-fluoro-β-(4-fluorophenyl)-L-phenylalaninamide] has an IC50 of 3.4 nM.
In the case of CS(=O)(=O)N1CCNC[C@H]1CCc1c(F)cncc1NC(=O)[C@@H](N)C(c1ccc(F)cc1)c1ccc(F)cc1 [Example 2, 2S-Amino-3,3-di-(4-fluorophenyl)-N-(5-fluoro-4-(2-(1-methylsulfonylpiperazin-2-yl)ethyl)pyridin-3-yl)propanamide], the IC50 is reported as 1400 nM.
With O=C(C[C@@H](c1ccc(F)cc1)c1cc(F)cc(F)c1)Nc1cncc(F)c1CC[C@H]1CNCCN1C(=O)Nc1ccccc1 [Example 342, (2S)-2-[2-(3-{[(3S)-3-(3,5-difluorophenyl)-3-(4-fluorophenyl)propanoyl]amino}-5-fluoropyridin-4-yl)ethyl]-N-phenylpiperazine-1-carboxamide] the IC50 was 250 nM.
In the case of Nc1ccc(S(=O)(=O)N2CCNC[C@@H]2CCc2c(F)cncc2NC(=O)[C@@H](N)C(c2ccc(F)cc2)c2ccc(F)cc2)cc1 [Example 24, (S)-2-amino-N-(4-(2-((S)-1-((4-aminophenyl)sulfonyl)piperazin-2-yl)ethyl)-5-fluoropyridin-3-yl)-3,3-bis(4-fluorophenyl) propanamide], the IC50 is reported as 0.2 nM.
Nc1ccc(S(=O)(=O)N2CCNC[C@H]2CCc2c(F)cncc2NC(=O)[C@@H](N)C(c2ccc(F)cc2)c2ccc(F)cc2)cc1 [Example 25, (S)-2-amino-N-(4-(2-((R)-1-((4-aminophenyl)sulfonyl)piperazin-2-yl)ethyl)-5-fluoropyridin-3-yl)-3,3-bis(4-fluorophenyl) propanamide] was tested, and the IC50 was 1.3 nM.
